Test results from US9221792B2, “N-(4-(azetidine-1-carbonyl) phenyl)-(hetero-) arylsulfonamide derivatives as pyruvate kinase M2 (PMK2) modulators” (AGIOS PHARMACEUTICALS, INC, priority 2010, dated 2015).

biological target: PKM2 (Homo sapiens, UniProt P14618); experiment: PKM2 Assay (activation, LDH-coupled NADH absorbance at 340 nm); format: biochemical; settings: not given
Method: • PKM2 stock enzyme solution was diluted in Reaction Buffer • 2 μL of compound was added into each well first, and then 180 μL of the Reaction Mix was added. • Reaction mixture with compound (without ADP) were incubated for 30 minutes at 4° C. • Plates were re-equilibrated to room temperature prior to adding 20 μL ADP to initiate the reaction. • Reaction progress was measured as changes in absorbance at 340 nm wavelength at room temperature (25° C.) Reaction Mix: PKM2 (50 ng/well), ADP (0.7 mM), PEP (0.15 mM), NADH (180 μM), LDH (2 units) in Reaction Buffer Reaction Buffer: 100 mM KCl, 50 mM Tris pH 7.5, 5 mM MgCl2, 1 mM DTT, 0.03% BSA.
Certain compounds of Formula I were tested in the above-described assay. A compound described herein may be tested for its ability to activate PKM2. The activation activity of these compounds is represented as an AC50 in Table 2 and throughout the application. […] “B” refers to an activator of PKM2 with an EC50 between 100 nM and 1 μM. “C” refers to an activator of PKM2 with an EC50 between 1 μM and 10 μM. “D” refers to an activator of PKM2 with an EC50 greater than 10 μM. “NA” refers to data that is not available.

PKM2, sequence (P14618 whole entry): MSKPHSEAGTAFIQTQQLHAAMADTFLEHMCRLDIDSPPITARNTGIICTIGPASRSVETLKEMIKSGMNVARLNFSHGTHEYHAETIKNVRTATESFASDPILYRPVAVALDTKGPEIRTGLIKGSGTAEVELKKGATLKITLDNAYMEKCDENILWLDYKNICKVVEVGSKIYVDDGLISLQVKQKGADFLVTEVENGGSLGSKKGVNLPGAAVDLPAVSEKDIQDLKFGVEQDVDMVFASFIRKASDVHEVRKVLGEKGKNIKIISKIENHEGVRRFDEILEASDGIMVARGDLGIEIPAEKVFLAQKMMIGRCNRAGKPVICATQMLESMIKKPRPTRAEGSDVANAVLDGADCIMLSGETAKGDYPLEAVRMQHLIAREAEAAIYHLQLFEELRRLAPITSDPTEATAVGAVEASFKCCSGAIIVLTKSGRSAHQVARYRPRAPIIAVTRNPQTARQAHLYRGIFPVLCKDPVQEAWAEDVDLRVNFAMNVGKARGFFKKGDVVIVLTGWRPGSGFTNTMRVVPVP

Row | SMILES | AC50 [nM]
1 | O=C(Cc1ccccc1)OC1CN(C(=O)c2ccc(NS(=O)(=O)c3cccc4cccnc34)cc2)C1 [Compound 123, 1-(4-(Quinoline-8-sulfonamido)benzoyl)azetidin-3-yl 2-phenylacetate] | 100 to 1000

same assay, conditions: activation of PKM2; PKM2 50 ng/well, ADP 0.7 mM, PEP 0.15 mM, room temperature (25° C.); read-out: AC50

Row | SMILES | AC50 [nM]
2 | O=C(c1ccc(NS(=O)(=O)c2cccc3cccnc23)cc1)N1CC(Oc2ccccc2)C1 [Compound 100] | 100 to 1000
3 | O=C(c1ccc(NS(=O)(=O)c2cccc3cccnc23)cc1)N1CC(O)(Cc2ccccc2)C1 [Compound 101, N-(4-(3-benzyl-3-hydroxyazetidine-1-carbonyl)phenyl)quinoline-8-sulfonamide] | < 100
4 | O=C(OC1CN(C(=O)c2ccc(NS(=O)(=O)c3cccc4cccnc34)cc2)C1)c1ccccn1 [Compound 102, 1-(4-(Quinoline-8-sulfonamido)benzoyl)azetidin-3-yl picolinate] | 1000 to 10000
5 | Cc1cc(C(=O)N2CC(NC(=O)c3ccccn3)C2)ccc1NS(=O)(=O)c1cccc2cccnc12 [Compound 103, N-(1-(3-Methyl-4-(quinoline-8-sulfonamido)benzoyl)azetidin-3-yl)picolinamide] | 100 to 1000
6 | O=C(NC1CN(C(=O)c2ccc(S(=O)(=O)Nc3cccc4cccnc34)cc2)C1)c1ccccn1 [Compound 104] | > 10000
7 | COC1(Cc2ccccc2)CN(C(=O)c2ccc(NS(=O)(=O)c3cccc4cccnc34)cc2)C1 [Compound 105, N-(4-(3-benzyl-3-methoxyazetidine-1-carbonyl)phenyl)quinoline-8-sulfonamide] | 100 to 1000
8 | Cc1cc(C(=O)N2CC(Oc3ccccc3)C2)ccc1NS(=O)(=O)c1cccc2cccnc12 [Compound 106] | < 100
9 | O=C(c1ccc(NS(=O)(=O)c2cccc3cccnc23)c(F)c1)N1CC(Oc2ccccc2)C1 [Compound 107] | 100 to 1000
10 | O=C(c1ccc(NS(=O)(=O)c2cccc3cccnc23)cc1)N1CC(OCc2ccccc2)C1 [Compound 108, N-(4-(3-(benzyloxy)azetidine-1-carbonyl)phenyl)quinoline-8-sulfonamide] | 100 to 1000
11 | Cc1cc(C(=O)N2CC(N(C)Cc3ccccc3)C2)ccc1NS(=O)(=O)c1cccc2cccnc12 [Compound 109, N-(4-(3-(benzyl(methyl)amino)azetidine-1-carbonyl)-2-methylphenyl)quinoline-8-sulfonamide] | 100 to 1000
12 | Cc1cc(C(=O)N2CC(OC(=O)c3ccccn3)C2)ccc1NS(=O)(=O)c1cccc2cccnc12 [Compound 110, 1-(3-Methyl-4-(quinoline-8-sulfonamido)benzoyl)azetidin-3-yl picolinate] | 100 to 1000
13 | O=C(NC1CN(C(=O)c2ccc(NS(=O)(=O)c3cccc4cccnc34)cc2)C1)c1ccccn1 [Compound 111, N-(1-(4-(Quinoline-8-sulfonamido)benzoyl)azetidin-3-yl)picolinamide] | 1000 to 10000
14 | O=C(c1ccc(NS(=O)(=O)c2cccc3cccnc23)cc1)N1CC(Nc2ccccc2)C1 [Compound 112] | < 100
15 | COc1ccccc1NC1CN(C(=O)c2ccc(NS(=O)(=O)c3cccc4cccnc34)cc2)C1 [Compound 113] | < 100
16 | COc1ccccc1NC1CN(C(=O)c2ccc(NS(=O)(=O)c3cccc4cccnc34)c(C)c2)C1 [Compound 114] | < 100
17 | COc1ccccc1NC1CN(C(=O)c2ccc(NS(=O)(=O)c3cccc4cccnc34)c(F)c2)C1 [Compound 115] | 100 to 1000
18 | COc1ccccc1NC1CN(C(=O)c2ccc(S(=O)(=O)Nc3cccc4cccnc34)cc2)C1 [Compound 116] | > 10000
19 | COc1ccccc1N(C)C1CN(C(=O)c2ccc(NS(=O)(=O)c3cccc4cccnc34)cc2)C1 [Compound 117] | 100 to 1000
20 | O=C(c1ccc(NS(=O)(=O)c2cccc3cccnc23)c(F)c1)N1CC(Nc2ccccc2)C1 [Compound 118] | 100 to 1000
21 | O=C(c1ccc(S(=O)(=O)Nc2cccc3cccnc23)cc1)N1CC(OCc2ccccc2)C1 [Compound 119] | 1000 to 10000
22 | Cc1cc(C(=O)N2CC(OCc3ccccc3)C2)ccc1NS(=O)(=O)c1cccc2cccnc12 [Compound 120, N-(4-(3-(benzyloxy)azetidine-1-carbonyl)-2-methylphenyl)quinoline-8-sulfonamide] | 100 to 1000
23 | O=C(NC1CN(C(=O)c2ccc(NS(=O)(=O)c3cccc4cccnc34)c(F)c2)C1)c1ccccn1 [Compound 121, N-(1-(3-Fluoro-4-(quinoline-8-sulfonamido)benzoyl)azetidin-3-yl)picolinamide] | 1000 to 10000
24 | CN(c1ccccc1)C1CN(C(=O)c2ccc(NS(=O)(=O)c3cccc4cccnc34)cc2)C1 [Compound 122] | < 100
25 | O=C(OC1CN(C(=O)c2ccc(NS(=O)(=O)c3cccc4cccnc34)c(F)c2)C1)c1ccccn1 [Compound 124, 1-(3-Fluoro-4-(quinoline-8-sulfonamido)benzoyl)azetidin-3-yl picolinate] | 1000 to 10000
26 | CC1(O)CN(C(=O)c2ccc(NS(=O)(=O)c3cccc4cccnc34)c(F)c2)C1 [Compound 125] | > 10000

Row | SMILES | AC50 [nM]
27 | CC1(O)CN(C(=O)c2ccc(NS(=O)(=O)c3cccc4cccnc34)cc2)C1 [Compound 126] | > 10000
28 | COc1cc(NS(=O)(=O)c2cccc3cccnc23)ccc1C(=O)N1CC(C)(O)C1 [Compound 127] | 1000 to 10000
29 | COc1ccccc1N(C)C1CN(C(=O)c2ccc(S(=O)(=O)Nc3cccc4cccnc34)cc2)C1 [Compound 128] | > 10000
30 | COc1ccccc1OC1CN(C(=O)c2ccc(NS(=O)(=O)c3cccc4cccnc34)cc2)C1 [Compound 129] | 100 to 1000
31 | COc1cc(NS(=O)(=O)c2cccc3cccnc23)ccc1C(=O)N1CC(O)(Cc2ccccc2)C1 [Compound 130, N-(4-(3-benzyl-3-hydroxyazetidine-1-carbonyl)-3-methoxyphenyl)quinoline-8-sulfonamide] | < 100
32 | Cc1cc(C(=O)N2CC(O)(Cc3ccccc3)C2)ccc1NS(=O)(=O)c1cccc2cccnc12 [Compound 131, N-(4-(3-benzyl-3-hydroxyazetidine-1-carbonyl)-2-methylphenyl) quinoline-8-sulfonamide] | < 100
33 | Cc1cc(C(=O)N2CC(OC(=O)NC(C)C)C2)ccc1NS(=O)(=O)c1cccc2cccnc12 [Compound 132, 1-(3-Methyl-4-(quinoline-8-sulfonamido)benzoyl)azetidin-3-yl isopropylcarbamate] | 100 to 1000
34 | COc1cc(NS(=O)(=O)c2cccc3cccnc23)ccc1C(=O)N1CC(OC(=O)NC(C)C)C1 [Compound 133, 1-(2-Methoxy-4-(quinoline-8-sulfonamido)benzoyl)azetidin-3-yl isopropylcarbamate] | 100 to 1000
35 | CC(C)NC(=O)OC1CN(C(=O)c2ccc(NS(=O)(=O)c3cccc4cccnc34)c(F)c2)C1 [Compound 134, 1-(3-Fluoro-4-(quinoline-8-sulfonamido)benzoyl)azetidin-3-yl isopropylcarbamate] | 1000 to 10000
36 | CC(C)NC(=O)OC1CN(C(=O)c2ccc(NS(=O)(=O)c3cccc4cccnc34)cc2)C1 [Compound 135, 1-(4-(Quinoline-8-sulfonamido)benzoyl)azetidin-3-yl isopropylcarbamate] | 1000 to 10000
37 | O=C(c1ccc(NS(=O)(=O)c2cccc3cccnc23)cc1)N1CC(O)(c2ccccc2)C1 [Compound 136] | 100 to 1000
38 | Cc1cc(C(=O)N2CC(O)(c3ccccc3)C2)ccc1NS(=O)(=O)c1cccc2cccnc12 [Compound 137] | 100 to 1000
39 | COc1cc(NS(=O)(=O)c2cccc3cccnc23)ccc1C(=O)N1CC(O)(c2ccccc2)C1 [Compound 138] | < 100
40 | C=CCNC(=O)NC1CN(C(=O)c2ccc(NS(=O)(=O)c3cccc4cccnc34)cc2)C1 [Compound 139, N-(4-(3-(3-Allylureido)azetidine-1-carbonyl)phenyl)quinoline-8-sulfonamide] | 1000 to 10000
41 | C=CCNC(=O)NC1CN(C(=O)c2ccc(NS(=O)(=O)c3cccc4cccnc34)c(OC)c2)C1 [Compound 140, N-(4-(3-(3-Allylureido)azetidine-1-carbonyl)-2-methoxyphenyl)quinoline-8-sulfonamide] | 1000 to 10000
42 | O=C(c1ccc(NS(=O)(=O)c2cccc3cccnc23)cc1)N1CC(O)C1 [Compound 141] | > 10000
43 | Cc1cc(C(=O)N2CC(O)C2)ccc1NS(=O)(=O)c1cccc2cccnc12 [Compound 142] | 1000 to 10000
44 | COc1cc(NS(=O)(=O)c2cccc3cccnc23)ccc1C(=O)N1CC(O)C1 [Compound 143] | > 10000
45 | Cc1cc(C(=O)N2CC(C)(O)C2)ccc1NS(=O)(=O)c1cccc2cccnc12 [Compound 144] | 1000 to 10000
46 | Cc1cc(C(=O)N2CC(Nc3ccccc3)C2)ccc1NS(=O)(=O)c1cccc2cccnc12 [Compound 145] | < 100
47 | CN(Cc1ccccc1)C1CN(C(=O)c2ccc(NS(=O)(=O)c3cccc4cccnc34)cc2)C1 [Compound 146] | 100 to 1000
48 | O=C(c1ccc(NS(=O)(=O)c2cccc3cccnc23)cc1)N1CC(NCc2ccccc2)C1 [Compound 147, N-(4-(3-(benzylamino)azetidine-1-carbonyl)phenyl)quinoline-8-sulfonamide] | 100 to 1000
49 | COc1ncccc1NC1CN(C(=O)c2ccc(NS(=O)(=O)c3cccc4cccnc34)c(C)c2)C1 [Compound 148] | 100 to 1000
50 | COc1cccnc1NC1CN(C(=O)c2ccc(NS(=O)(=O)c3cccc4cccnc34)c(C)c2)C1 [Compound 149] | < 100
